These results are taken from patent publication US9849099B2, “Antimicrobial compounds, compositions and methods of use thereof” (WISCONSIN ALUMNI RESEARCH FOUNDATION, priority 2014, dated 2017).

Common to all, as to assay: MIC micro-dilution
Holding throughout (format): cell-based
Background: In broth dilution the organism is exposed to a series of concentrations in liquid medium.

One assay concerns E. coli BW25113 ΔtolC. To be noted: Escherichia coli, LB media, 37° C., 16-18 hours. Here is the method: (§1) Luria-Bertani (LB) media (10 g/L tryptone, 10 g/L NaCl, 5 g/L yeast extract, pH 7.0) was used to grow all bacterial strains, except Streptococcus pyogenes. Streptococcus pyogenes was grown in Mueller-Hinton broth containing 5% (v/v) sheep blood. All bacterial cultures were grown at 37° C. All the E. coli strains were grown while shaking at 200 rpm, while clinical pathogens were incubated without shaking.
(§2) The MIC of all the strains was determined in LB media except Streptococcus pyogenes, which was grown in Mueller-Hinton media containing 5% (v/v) sheep blood. The micro-dilution method was utilized in 96-well clear flat-bottom plates (100 μL/well) according to the CLSI guidelines. All strains were grown at 37° C. for 16-18 hours in presence of various concentrations of compound. The MIC was determined by a visual inspection and experiments were performed in triplicate.

Another assay has as its system E. coli BW25113. To be noted: Escherichia coli, LB media, 37° C., 16-18 hours. Here is the method: as §1, §2
Another assay has as its system Pseudomonas aeruginosa. Here is the method:
as §1, §2

For a further assay, the system named is Staphylococcus aureus. Here is the method:
as §1, §2

Another assay concerns Shigella boydii. To be noted: LB media, 37° C., 16-18 hours, read-out: MIC. Here is the method: as §1, §2
For the next assay, the system named is Klebsiella pneumoniae. As to the method:
as §1, §2

For another assay, the system named is Morganella morganii. As to the method: as §1, §2
A further assay has as its system Acinetobacter baumannii. Here is the method:
as §1, §2

For the next assay, the system named is Enterobacter aerogenes. To be noted: Klebsiella aerogenes. Here is the method:
as §1, §2

In another assay the test system is Vibrio cholerae. As to the method:
as §1, §2

The subject of the next assay is Salmonella typhimurium. To be noted: Salmonella enterica. As to the method:
as §1, §2

Another assay deals with Edwardsiella tarda. As to the method:
as §1, §2

In another assay the test system is Bacillus subtilis 168. Here is the method: as §1, §2
Setting [1] is: LB media, 37° C., 16-18 hours, read-out: MIC.
[2] abbreviates: Bacillus subtilis 168, LB media, 37° C., 16-18 hours, read-out: MIC.
The mark [3] stands for this setting: Enterobacter aerogenes, LB media, 37° C., 16-18 hours, read-out: MIC.
Where [4] appears, read: Salmonella typhimurium, LB media, 37° C., 16-18 hours, read-out: MIC.

In brackets after ≈: the same amount, converted by molar mass. Read-outs that look alike come from different tables or passages of the source.

As usually defined, the MIC is the lowest concentration that inhibits growth of the organism. As for `NCCc1c[nH]c2ccc(O)cc12` [Compound 2], the MIC against E. coli BW25113 ΔtolC is above 51 µg/mL; against E. coli BW25113 (BW25113, E. coli BW25113) it was above 51 µg/mL.
In the case of `COc1ccc2[nH]cc(CCN)c2c1` [Compound 3], the minimum inhibitory concentration (MIC) with E. coli BW25113 ΔtolC is above 56 µg/mL; in the assay with E. coli BW25113 (BW25113, E. coli BW25113) it was above 56 µg/mL.
As to `NCCc1c[nH]c2ccccc12` [Compound 4], the MIC was above 61 µg/mL against E. coli BW25113 ΔtolC and above 61 µg/mL with E. coli BW25113 (BW25113, E. coli BW25113).
Regarding `Cc1[nH]c2ccc(O)cc2c1CCN` [Compound 5], the MIC is above 61 µg/mL in the assay on E. coli BW25113 ΔtolC and above 61 µg/mL in the assay with E. coli BW25113 (BW25113, E. coli BW25113).
For `COc1ccc2c(CCN)c[nH]c2c1` [Compound 6], the MIC against E. coli BW25113 ΔtolC was above 61 µg/mL; against E. coli BW25113 (BW25113, E. coli BW25113), above 61 µg/mL.
Take `CCCCOc1ccc2[nH]cc(CCN)c2c1` [Compound 7]: the MIC in the assay with E. coli BW25113 ΔtolC, in the assay on Pseudomonas aeruginosa, against Staphylococcus aureus, with Shigella boydii, against Klebsiella pneumoniae and in the assay on Morganella morganii was above 74 µg/mL each time. The MIC with Acinetobacter baumannii is above 74 µg/mL; against E. coli BW25113 (BW25113, E. coli BW25113) it was above 74 µg/mL; in the assay with Enterobacter aerogenes, above 74 µg/mL; with Vibrio cholerae it was above 74 µg/mL; in the assay on Salmonella typhimurium (TYPHIMURIUM) it was above 74 µg/mL; with Edwardsiella tarda, above 74 µg/mL.
Take `CCCCCCOc1ccc2[nH]cc(CCN)c2c1` [Compound 8]: the MIC against E. coli BW25113 ΔtolC was 42 µg/mL (≈ 161 µM); against Pseudomonas aeruginosa, above 83 µg/mL; with Staphylococcus aureus, 42 µg/mL (≈ 161 µM); in the assay on Shigella boydii, 42 µg/mL (≈ 161 µM); in the assay with Klebsiella pneumoniae, 42 µg/mL (≈ 161 µM); in the assay on Morganella morganii, above 83 µg/mL. The MIC with Acinetobacter baumannii worked out at 42 µg/mL (≈ 161 µM); against E. coli BW25113 (BW25113, E. coli BW25113), 42 µg/mL (≈ 161 µM); in the assay with Enterobacter aerogenes it was 42 µg/mL (≈ 161 µM); against Vibrio cholerae, 42 µg/mL (≈ 161 µM); with Salmonella typhimurium (TYPHIMURIUM), 42 µg/mL (≈ 161 µM); in the assay on Edwardsiella tarda, 42 µg/mL (≈ 161 µM).
With `CCCCCCCCCCCCCCCOc1ccc2[nH]cc(CCN)c2c1` [Compound 12], the MIC in the assay on E. coli BW25113 ΔtolC, in the assay with Pseudomonas aeruginosa, against Staphylococcus aureus, in the assay with Shigella boydii, with Klebsiella pneumoniae and in the assay on Morganella morganii was above 124 µg/mL in each case. Besides, the MIC is above 124 µg/mL in the assay on Acinetobacter baumannii; above 124 µg/mL against E. coli BW25113 (BW25113, E. coli BW25113); above 124 µg/mL against Enterobacter aerogenes; above 124 µg/mL against Vibrio cholerae; above 124 µg/mL against Salmonella typhimurium (TYPHIMURIUM); above 124 µg/mL against Edwardsiella tarda.
As for `CCCCCCCCCOc1ccc2[nH]cc(CCNC(=O)OC(C)C)c2c1` [Compound 13], the MIC in the assay with E. coli BW25113 ΔtolC, in the assay on Pseudomonas aeruginosa (setting [1]), in the assay with Bacillus subtilis 168 (setting [2]), with Staphylococcus aureus (setting [1]), in the assay on Shigella boydii and in the assay on Klebsiella pneumoniae (setting [1]) was above 130 µg/mL each time. Also, the MIC in the assay with Morganella morganii (setting [1]) was above 130 µg/mL; in the assay with Acinetobacter baumannii (setting [1]) it was above 130 µg/mL; in the assay with E. coli BW25113 (E. coli BW25113, read-out: MIC) it was above 130 µg/mL; with Enterobacter aerogenes (setting [3]), above 130 µg/mL; in the assay on Vibrio cholerae it was above 130 µg/mL; with Salmonella typhimurium (setting [4]), above 130 µg/mL. Further, the MIC in the assay on Edwardsiella tarda (setting [1]) is above 130 µg/mL.
Take `CCCCCCCCCOc1ccc2[nH]ccc2c1` [Compound 14]: the MIC against E. coli BW25113 ΔtolC, with Pseudomonas aeruginosa (setting [1]), in the assay on Bacillus subtilis 168 (setting [2]), in the assay with Staphylococcus aureus (setting [1]), in the assay with Shigella boydii and in the assay with Klebsiella pneumoniae (setting [1]) was above 83 µg/mL throughout. In addition, the MIC with Morganella morganii (setting [1]) was above 83 µg/mL; in the assay with Acinetobacter baumannii (setting [1]) it was above 83 µg/mL; in the assay on E. coli BW25113 (E. coli BW25113, read-out: MIC), above 83 µg/mL; in the assay on Enterobacter aerogenes (setting [3]), above 83 µg/mL; in the assay with Vibrio cholerae it was above 83 µg/mL; in the assay on Salmonella typhimurium (setting [4]), above 83 µg/mL. In addition, in the assay with Edwardsiella tarda (setting [1]), the MIC is above 83 µg/mL.
Take `CCCCCCCCCOc1ccc(CCN)cc1` [Compound 17]: the MIC in the assay with E. coli BW25113 ΔtolC is 1.3 µg/mL (≈ 4.93 µM); against Bacillus subtilis 168 (Bacillus subtilis, 168), 0.66 µg/mL (≈ 2.51 µM); in the assay on E. coli BW25113 (BW25113, E. coli BW25113), 5.3 µg/mL (≈ 20.1 µM).
As for `CCCCCCCCCOc1cccc(CN)c1` [Compound 18], the MIC in the assay on E. coli BW25113 ΔtolC was determined as 4.7 µg/mL (≈ 18.8 µM); in the assay on Bacillus subtilis 168 (setting [2]), 4.7 µg/mL (≈ 18.8 µM); in the assay on E. coli BW25113 (E. coli BW25113, read-out: MIC), 9.4 µg/mL (≈ 37.7 µM).
As for `CCCCCCCCCOc1cccc(N)c1` [Compound 19], the MIC was 10 µg/mL (≈ 42.5 µM) against E. coli BW25113 ΔtolC; 40 µg/mL (≈ 170 µM) in the assay with Bacillus subtilis 168 (setting [2]); above 40 µg/mL in the assay on E. coli BW25113 (E. coli BW25113, read-out: MIC).
